Measurements published in patent US20230150924A1, “NOVEL COMPOUND HAVING CANCER METASTASIS INHIBITORY ACTIVITY, PREPARATION METHOD THEREFOR, AND PHARMACEUTICAL COMPOSITION FOR INHIBITING CANCER METASTASIS AND INVASION OR TREATING COLORECTAL CANCER, COMPRISING COMPOUND” (CELLGENTEK CO., LTD., priority 2019, published 2023).
Read-outs that look alike come from different tables or passages of the source.

Experiments:
KAI1 promoter = KAI1 promoter luciferase reporter assay in transfected Caco2 cells; assay type: cell-based, human; details: for fold induction at 1 µM: Homo sapiens, Caco-2, 16 h, read-out: Relative KAI promoter activity
[1] = test system: invasion of colorectal cancer cells; test: In vivo relative invation (invasion; EV and KITENIN controls, no method described); details: relative to EV (=1); KIT = KITENIN
[2] = 1 μM compound, 16 hours, transfected Caco2 cells, luciferase activity relative to DMSO control (=1)

Structure (SMILES): Cc1ccccc1C(=O)NCC(=O)c1ccc(Cl)cc1 [Example 51, N-(2-(4-chlorophenyl)-2-oxoethyl)-2-methylbenzamide]
- fold induction at 1 µM (KAI1 promoter; [2]): 1.81
- In vivo relative invation [1]: 1.513

Structure (SMILES): O=C(CNC(=O)c1ccccc1OC1CCN(S(=O)(=O)c2cccc([S](=O)=O)c2)CC1)c1ccccc1 [Example 175, 2-((1-((3-(dioxo-15-sulfanyl)phenyl)sulfonyl)piperidin-4-yl)oxy)-N-(2-oxo-2-phenylethyl)benzamide]
- Relative KAI promoter activity (KAI1 promoter; [2]): 0.97
- In vivo relative invation [1]: 1.149

Structure (SMILES): COc1ccc(C(=O)NCC(=O)c2ccc(Cl)cc2)cc1 [Example 52, N-(2-(4-chlorophenyl)-2-oxoethyl)-4-methoxybenzamide]
- fold induction at 1 µM (KAI1 promoter; [2]): 1.36
- In vivo relative invation [1]: 1.158

Structure (SMILES): COCC(=O)NCC(=O)c1ccc(N(C)C)cc1 [Example 106, N-(2-(4-(dimethylamino)phenyl)-2-oxoethyl)-2-methoxyacetamide]
- fold induction at 1 µM (KAI1 promoter; [2]): 2.44
- In vivo relative invation [1]: 1.171

Structure (SMILES): O=C(CNC(=O)c1ccccc1CN1CCN(c2ccccn2)CC1)c1ccccc1 [Example 302, N-(2-oxo-2-phenylethyl)-2-((4-(pyridin-2-yl)piperazin-1-yl)methyl)benzamide]
- fold induction at 1 µM (KAI1 promoter; [2]): 1.41
- In vivo relative invation [1]: 1.175

Structure (SMILES): O=C(CNC(=O)c1cccc(CN2CCN(c3ncccn3)CC2)c1)c1ccccc1 [Example 235, N-(2-oxo-2-phenylethyl)-3-((4-(pyrimidin-2-yl)piperazin-1-yl)methyl)benzamide]
- fold induction at 1 µM (KAI1 promoter; [2]): 1.44
- In vivo relative invation [1]: 1.133

Structure (SMILES): Cc1ccccc1C(=O)N1CCC(Oc2ccccc2C(=O)NCC(=O)c2ccccc2)CC1 [Example 161, 2-((1-(2-methylbenzoyl)piperidin-4-yl)oxy)-N-(2-oxo-2-phenylethyl)benzamide]
- fold induction at 1 µM (KAI1 promoter; [2]): 0.95
- In vivo relative invation [1]: 1.121

Structure (SMILES): COc1ccc(S(=O)(=O)NCC(=O)c2ccc(N(C)C)cc2)cc1 [Example 111, N-(2-(4-(dimethylamino)phenyl)-2-oxoethyl)-4-methoxybenzenesulfonamide]
- fold induction at 1 µM (KAI1 promoter; [2]): 1.44
- In vivo relative invation [1]: 1.065

Structure (SMILES): O=C(CNC(=O)c1ccccc1F)c1cccnc1 [Example 132, 2-fluoro-N-(2-oxo-2-(pyridin-3-yl)ethyl)benzamide]
- fold induction at 1 µM (KAI1 promoter; [2]): 1.18
- In vivo relative invation [1]: 1.226

Structure (SMILES): CCC(=O)NCC(=O)c1ccc(N2CCOCC2)cc1 [Example 142, N-(2-(4-morpholinophenyl)-2-oxoethyl)propionamide]
- fold induction at 1 µM (KAI1 promoter; [2]): 1.12
- In vivo relative invation [1]: 1.8

Structure (SMILES): O=C(COc1ccccc1C(=O)NCC(=O)c1ccccc1)Nc1cc(C(F)(F)F)ccc1F [Example 222, 2-(2-((2-fluoro-5-(trifluoromethyl)phenyl)amino)-2-oxoethoxy)-N-(2-oxo-2-phenylethyl)benzamide]
- fold induction at 1 µM (KAI1 promoter; [2]): 1.2
- In vivo relative invation [1]: 1.275

Structure (SMILES): O=C(CNC(=O)c1cccc(C(F)(F)F)c1)c1ccccc1 [Example 31, N-(2-oxo-2-phenylethyl)-3-(trifluoromethyl)benzamide]
- fold induction at 1 µM (KAI1 promoter; [2]): 1.18
- In vivo relative invation [1]: 0.8211

Structure (SMILES): CCCCN(CC)Cc1cccc(C(=O)NCC(=O)c2ccccc2)c1 [Example 249, 3-((butyl(ethyl)amino)methyl)-N-(2-oxo-2-phenylethyl)benzamide]
- fold induction at 1 µM (KAI1 promoter; [2]): 1.35
- In vivo relative invation [1]: 1.113

Structure (SMILES): CN(C)c1ccc(C(=O)CNC(=O)c2cc(Cl)cc(Cl)c2)cc1 [Example 117, 3,5-dichloro-N-(2-(4-(dimethylamino)phenyl)-2-oxoethyl)benzamide]
- fold induction at 1 µM (KAI1 promoter; [2]): 1.32
- In vivo relative invation [1]: 1.076

Structure (SMILES): O=C(CNC(=O)c1ccccc1OC1CCN(C(=O)c2cc(Cl)cc(Cl)c2)CC1)c1ccccc1 [Example 197, 2-((1-(3,5-dichlorobenzoyl)piperidin-4-yl)oxy)-N-(2-oxo-2-phenylethyl)benzamide]
- fold induction at 1 µM (KAI1 promoter; [2]): 0.92
- In vivo relative invation [1]: 1.214

Structure (SMILES): CCN(C)Cc1cccc(C(=O)NCC(=O)c2cccc(OC)c2)c1 [Example 287, 3-((ethyl (methyl)amino)methyl)-N-(2-(3-methoxyphenyl)-2-oxoethyl)benzamide]
- fold induction at 1 µM (KAI1 promoter; [2]): 2.06
- In vivo relative invation [1]: 1.376

Structure (SMILES): O=C(COc1ccccc1C(=O)NCC(=O)c1ccccc1)Nc1cccc(O)c1 [Example 223, 2-(2-((3-hydroxyphenyl)amino)-2-oxoethoxy)-N-(2-oxo-2-phenylethyl)benzamide]
- fold induction at 1 µM (KAI1 promoter; [2]): 1.1
- In vivo relative invation [1]: 1.195

Structure (SMILES): CCCCN(CCO)Cc1cccc(C(=O)NCC(=O)c2ccccc2)c1 [Example 244, 3-((butyl (2-hydroxyethyl)amino)methyl)-N-(2-oxo-2-phenylethyl)benzamide]
- fold induction at 1 µM (KAI1 promoter; [2]): 1.51
- In vivo relative invation [1]: 1.1

Structure (SMILES): CCCCC(=O)NCC(=O)c1ccc(N(C)C)cc1 [Example 103, N-(2-(4-(dimethylamino)phenyl)-2-oxoethyl)pentanamide]
- fold induction at 1 µM (KAI1 promoter; [2]): 1.7
- In vivo relative invation [1]: 1.172

Structure (SMILES): O=C(CNC(=O)c1ccccc1OC1CCN(C(=O)c2cccs2)CC1)c1ccccc1 [Example 168, N-(2-oxo-2-phenylethyl)-2-((1-(thiophene-2-carbonyl)piperidin-4-yl)oxy)benzamide]
- fold induction at 1 µM (KAI1 promoter; [2]): 1.05
- In vivo relative invation [1]: 1.199

Structure (SMILES): O=C(CNS(=O)(=O)c1ccc(F)cc1)c1ccccc1 [Example 26, 4-fluoro-N-(2-oxo-2-phenylethyl)benzenesulfonamide]
- fold induction at 1 µM (KAI1 promoter; [2]): 1.26
- In vivo relative invation [1]: 1.063

Structure (SMILES): CC(C)(C)OC(=O)N1CCN(Cc2ccc(C(=O)NCC(=O)c3ccccc3)cc2)CC1 [Example 269, tert-butyl 4-(4-((2-oxo-2-phenylethyl)carbamoyl)benzyl) piperazine-1-carboxylate]
- fold induction at 1 µM (KAI1 promoter; [2]): 1.38
- In vivo relative invation [1]: 1.163

Structure (SMILES): O=C(CNC(=O)C1CCCCC1)c1ccccc1 [Example 15, N-(2-oxo-2-phenylethyl)cyclohexanecarboxamide]
- fold induction at 1 µM (KAI1 promoter; [2]): 1.74
- In vivo relative invation [1]: 1.17

Structure (SMILES): CCCCC(=O)NCC(=O)c1cccc(OC)c1 [Example 128, N-(2-(3-methoxyphenyl)-2-oxoethyl)pentanamide]
- fold induction at 1 µM (KAI1 promoter; [2]): 1.1
- In vivo relative invation [1]: 1.179

Structure (SMILES): CC(C)Oc1cccc(NC(=O)COc2ccccc2C(=O)NCC(=O)c2ccccc2)c1 [Example 220, 2-(2-((3-isopropoxyphenyl)amino)-2-oxoethoxy)-N-(2-oxo-2-phenylethyl)benzamide]
- fold induction at 1 µM (KAI1 promoter; [2]): 1.15
- In vivo relative invation [1]: 0.9324

Structure (SMILES): CN(C)c1ccc(C(=O)CNS(=O)(=O)c2ccc(Cl)cc2)cc1 [Example 108, 4-chloro-N-(2-(4-(dimethylamino)phenyl)-2-oxoethyl)benzenesulfonamide]
- fold induction at 1 µM (KAI1 promoter; [2]): 1.36
- In vivo relative invation [1]: 0.989

Structure (SMILES): CN(Cc1ccccc1)Cc1cccc(C(=O)NCC(=O)c2ccccc2)c1 [Example 242, 3-((benzyl(methyl)amino)methyl)-N-(2-oxo-2-phenylethyl)benzamide]
- fold induction at 1 µM (KAI1 promoter; [2]): 1.17
- In vivo relative invation [1]: 1.146

Structure (SMILES): COc1ccc(S(=O)(=O)NCC(=O)c2ccc(Cl)cc2)cc1 [Example 71, N-(2-(4-chlorophenyl)-2-oxoethyl)-4-methoxybenzenesulfonamide]
- fold induction at 1 µM (KAI1 promoter; [2]): 0.85
- In vivo relative invation [1]: 1.135

Structure (SMILES): O=C(CNC(=O)c1ccccc1F)c1ccccc1 [Example 3, 2-fluoro-N-(2-oxo-2-phenylethyl)benzamide]
- fold induction at 1 µM (KAI1 promoter): 2.12
- In vivo relative invation [1]: 1

Structure (SMILES): O=C(CNC(=O)c1ccccc1OC1CCN(C(=O)C2CCC2)CC1)c1ccccc1 [Example 167, 2-((1-(cyclobutanecarbonyl)piperidin-4-yl)oxy)-N-(2-oxo-2-phenylethyl)benzamide]
- fold induction at 1 µM (KAI1 promoter; [2]): 1.04
- In vivo relative invation [1]: 1.159

Structure (SMILES): COCC(=O)NCC(=O)c1ccccc1 [Example 23, 2-methoxy-N-(2-oxo-2-phenylethyl) acetamide]
- fold induction at 1 µM (KAI1 promoter; [2]): 1
- In vivo relative invation [1]: 1.104

Structure (SMILES): CCN(Cc1ccc(C(=O)NCC(=O)c2ccccc2)cc1)c1ccccc1 [Example 263, 4-((ethyl(phenyl)amino)methyl)-N-(2-oxo-2-phenylethyl)benzamide]
- fold induction at 1 µM (KAI1 promoter; [2]): 2.23
- In vivo relative invation [1]: 1.301

Structure (SMILES): O=C(CNC(=O)c1ccc(CN2CCN(c3ccccc3F)CC2)cc1)c1ccccc1 [Example 257, 4-((4-(2-fluorophenyl)piperazin-1-yl)methyl)-N-(2-oxo-2-phenylethyl)benzamide]
- fold induction at 1 µM (KAI1 promoter; [2]): 1.36
- In vivo relative invation [1]: 1.338

Structure (SMILES): O=C(CNC(=O)c1ccc(CN2CCOCC2)cc1)c1ccccc1 [Example 276, 4-(morpholinomethyl)-N-(2-oxo-2-phenylethyl)benzamide]
- fold induction at 1 µM (KAI1 promoter; [2]): 3.39
- In vivo relative invation [1]: 1.224

Structure (SMILES): C=CC(=O)NCC(=O)c1ccc(Cl)cc1 [Example 50, N-(2-(4-chlorophenyl)-2-oxoethyl)acrylamide]
- fold induction at 1 µM (KAI1 promoter; [2]): 0.94
- In vivo relative invation [1]: 1.089

Structure (SMILES): O=C(CNC(=O)c1ccc(Cl)cc1)c1ccccc1 [Example 1, 4-chloro-N-(2-oxo-2-phenylethyl)benzamide]
- fold induction at 1 µM (KAI1 promoter): 1.7
- In vivo relative invation [1]: 0.9672

Structure (SMILES): O=C(CNC(=O)c1cc(Cl)cc(Cl)c1)c1ccccc1 [Example 36, 3,5-dichloro-N-(2-oxo-2-phenylethyl)benzamide]
- fold induction at 1 µM (KAI1 promoter; [2]): 1.16
- In vivo relative invation [1]: 1.056

Structure (SMILES): C/C=C/C(=O)NCC(=O)c1ccc(N2CCOCC2)cc1 [Example 139, (E)-N-(2-(4-morpholinophenyl)-2-oxoethyl)but-2-enamide]
- fold induction at 1 µM (KAI1 promoter; [2]): 1.01
- In vivo relative invation [1]: 1.314

Structure (SMILES): CN(C)c1ccc(C(=O)CNS(=O)(=O)c2ccccc2)cc1 [Example 109, N-(2-(4-(dimethylamino)phenyl)-2-oxoethyl)benzenesulfonamide]
- fold induction at 1 µM (KAI1 promoter; [2]): 2.89
- In vivo relative invation [1]: 0.9054

Structure (SMILES): CCCN(CCC)Cc1cccc(C(=O)NCC(=O)c2ccccc2)c1 [Example 248, 3-((dipropylamino)methyl)-N-(2-oxo-2-phenylethyl)benzamide]
- fold induction at 1 µM (KAI1 promoter; [2]): 1.3
- In vivo relative invation [1]: 1.116
